113 compounds from the RepoRT retention time repository can be followed below.

This data set is described as follows: Agilent ZORBAX 300 SB-C18, 150 × 1 mm, 3.5 µm; A: water + 0.01% heptafluorobutyric acid; B: acetonitrile + 0.01% heptafluorobutyric acid; gradient (min/%B) 0/0 100/90. The note with it: stereoisomer not certain.
With `CN1C(=O)NC(c2ccc(O)cc2)C2=C1CN(Cc1ccccc1)C2=O` (stereo not drawn), the LC retention time was 9.6 min.
Under `c1ccc(CN2CCN(Cc3ccncc3)CC2)nc1` stands 7.31 min; under `Cc1ccc(C(=O)Nc2ccccc2C(=O)N2CCN(C)CC2)cc1`, 8.88 min.
Turning to `CC(C)C(C)N` (stereo not drawn), the LC retention time came out at 6.98 min.
Take `CCOc1ccc(C=CC(=O)c2ccc(C)cc2)cc1`: the LC retention time was found to be 17.8 min.
Then `O=C(O)CC(CC(=O)O)c1ccccn1`, with 5.88 min.
Take `O=Cc1c(-c2ccccc2)[nH]c2ccccc12`: the LC retention time was determined as 12.7 min.
With `Nn1cnn(Cc2ccccc2)c1=S`, the LC retention time was 10.3 min.
As to `S=C1NC2(CCCCC2)NN1c1ccccc1`, the LC retention time was determined as 13.2 min.
On to `CCN(Cc1ccncc1)C(=S)NCCc1ccccc1`, for which the LC retention time was 10.2 min.
With `CCCCCCCCCCNC(=S)Nc1ccccc1`, the LC retention time turned out to be 19.6 min.
For the compound `Cn1c(=O)c2ccccc2n(CCN)c1=O`, the LC retention time was 7.65 min.
Under `NCc1ccccc1C(=O)O` stands 7 min.
Under `Cc1nn(CC(=O)NC2CC(C)(C)NC(C)(C)C2)c(=O)c2ccccc12` stands 8.35 min; under `O=C(O)CNC(=O)Nc1ccccc1`, 7.74 min.
`CN(C)c1ccc(C=NNC(N)=S)cc1`: the LC retention time came to 9.84 min.
Consider `CC(C)NCC(O)COc1ccc(CCOCC2CC2)cc1` (stereo not drawn), for which the LC retention time is 10.7 min.
For the compound `COc1cc(N)c(N2CCOCC2)cc1OC`, the LC retention time was 7.99 min.
Then `S=C(NCc1ccccc1)Nc1cccc2ccccc12`, with 14.4 min; and `Oc1ccccc1N1CCCCC1`, with 7.89 min; and `Nc1ccc2cc[nH]c2c1`, with 7.56 min.
Then `CC(c1ccccc1)C(N)C(=O)O` (stereo not drawn), with 7.08 min.
Turning to `Cc1cccc(CN2CCN(CN3C(=O)c4ccccc4C3=O)CC2)c1`, the LC retention time was found to be 10.3 min.
Then `NCc1ccc2[nH]c(=O)[nH]c2c1`, with 6.29 min; and `CC(C)CNC(=O)C(=O)NC1CC(C)(C)NC(C)(C)C1`, with 8.6 min.
Then `CCCCCCC(C)NCCO` (stereo not drawn), with 9.31 min.
`CCOC(=O)C(Cc1ccccc1)n1cccc1` (stereo not drawn): the LC retention time is 15.9 min.
Then `COc1ccc2c(c1)C13CCCCC1C(C2)N(C)CC3` (stereo not drawn), with 10.6 min.
`CC1=NC(=O)NC(c2ccccc2)C1C(=O)OCc1ccccc1` (stereo not drawn): the LC retention time was found to be 12.6 min.
Then `COc1ccc2c3c1OC1C(=O)CCC4C(C2)N(C)CCC314` (stereo not drawn), with 8.61 min; and `Cn1cnc2ccccc21`, with 7.26 min; and `CN(C)CCC=C1c2ccccc2C=Cc2ccccc21`, with 11.6 min.
In the case of `CNCCNC`, the LC retention time is 6.51 min.
As for `Nc1ccc2nc(-c3ccccc3)oc(=O)c2c1`, the LC retention time is 11.2 min.
Under `COc1cccc(OC)c1C(=O)C=Cc1ccccc1` stands 14.7 min; under `CNc1cnccn1`, 6.32 min; under `COc1cccc(C(=O)N(c2ccccc2)C2CC(C)N(C(C)=O)c3ccccc32)c1` (stereo not drawn), 14.3 min.
Under `O=C(CCc1ccccc1)NNC(=S)NCc1ccccc1` stands 12.4 min.
Then `Nc1ccnc2ccccc12`, with 7.32 min.
Turning to `OC(Cc1c[nH]c2ccccc12)(c1ccccc1)c1ccccc1`, the LC retention time is 16.1 min.
On to `CCn1c2ccccc2c2cc(CNC3CC3)ccc21`, for which the LC retention time was 10.8 min.
Then `CCCCCCn1c2ccccc2c2cc(C(C)=O)ccc21`, with 20 min; and `CN(Cc1ccccc1)C(=S)Nc1cccnc1`, with 9.65 min.
For `COc1cccc(OC)c1OCc1nc2ccccc2nc1C`, the LC retention time came out at 13.3 min.
Then `O=C(CC1COc2ccccc2O1)N1CCOCC1` (stereo not drawn), with 10.5 min; and `c1cc(N2CCCC2)ccn1`, with 7.65 min.
`O=C1CC(N2CCN(Cc3ccccc3)CC2)C(=O)N1Cc1ccccc1` (stereo not drawn): the LC retention time was 9.91 min.
As for `Cc1c(N)cccc1C(N)=O`, the LC retention time amounted to 5.38 min.
Under `Cc1cccc(NC(=O)c2ccc3nccnc3c2)n1` stands 9.62 min; under `CCC(C)n1cc(C=C2NC(=O)NC2=O)c2ccccc21` (stereo not drawn), 12.7 min.
Under `CC1CCCCN1C(=O)c1ccccc1N` (stereo not drawn) stands 11.1 min.
In the case of `C[n+]1cccc(C(N)=O)c1`, the LC retention time is 3.76 min.
Under `CC(C)NCC(O)COc1cccc2[nH]ccc12` (stereo not drawn) stands 8.75 min; under `COc1ccc2occ(C(=O)c3ccccc3C)c(=O)c2c1`, 14.2 min.
Under `CN(N)c1nc(N2CCCC2)nc(N2CCCC2)n1` stands 10.3 min; under `O=c1[nH]c(=O)n(CCc2ccccc2)c2c1CN(C1CCCC1)CN2`, 8.61 min.
With `Cc1ccc2cc(C)c(NCc3cccnc3)nc2c1`, the LC retention time was 8.55 min.
Regarding `C#CC1(N)CCCCC1`, the LC retention time came out at 7.77 min.
As to `CC1CNC(C)CN1` (stereo not drawn), the LC retention time is 6.62 min.
For `Cc1cccc(Oc2cc(C)nc3ccc(C)cc23)c1`, the LC retention time amounted to 11.8 min.
Regarding `CC(C)(C)NCCNC(C)(C)C`, the LC retention time worked out at 7.46 min.
Then `CCCn1cnc2c1c(=O)n(CCCCC(C)=O)c(=O)n2C`, with 10.2 min.
Then `CCNCCN(C)C`, with 7.47 min.
Consider `Nc1cccc2cc(-c3ccccc3)oc12`, for which the LC retention time was found to be 14.5 min.
In the case of `c1ccc(-n2c3c(c4ccccc42)CCCC3)cc1`, the LC retention time turned out to be 21.2 min.
Under `CCN(CC)C(=O)c1cc(C)nc2c1c(=O)n(CC(=O)Nc1ccccc1)c(=O)n2C` stands 12 min.
Under `CCCCc1ccc(-n2c(CCC(=O)O)ccc2-c2ccccc2)cc1` stands 18.1 min; under `CCC(C)NC(C)CC` (stereo not drawn), 8.16 min; under `CC1CCCN(CC(O)CN)C1` (stereo not drawn), 7.32 min.
Under `COC(=O)c1ccccc1NCc1ccccc1CNc1ccccc1C(=O)OC` stands 20.7 min; under `COC(=O)c1ccc2[nH]c3c(c2c1)CCCC3`, 14.8 min.
Turning to `Cc1cccc(-c2ccnc(=S)[nH]2)c1`, the LC retention time was 9.59 min.
Under `O=C(O)c1cc(-c2ccccc2)nc2ccccc12` stands 11.6 min; under `COc1ccc(N2C(=O)C=CC2=O)cc1`, 9.62 min.
Then `C=C(C)CC1C=CCC(CC(=C)C)N1Cc1ccccc1` (stereo not drawn), with 11.9 min; and `O=c1[nH]c2cc[nH]c(=O)c2[nH]1`, with 2.62 min; and `c1csc(-c2cnc3ccccc3n2)c1`, with 14.3 min.
Under `c1ccc2c(c1)ccc1cccnc12` stands 12.7 min; under `O=C(O)CCN1CCCc2ccccc21`, 11.3 min; under `Cc1ccc2nc(-c3nn[nH]n3)ccc2c1`, 10.5 min.
Consider `CC(=O)Nc1ccccc1N`, for which the LC retention time amounted to 6.82 min.
As to `CCCCN(C)C`, the LC retention time was 7.03 min.
For `Cn1c(=O)c2cc(S(=O)(=O)O)ccc2n(C)c1=O`, the LC retention time was determined as 5.36 min.
Under `CN(C)CCO` stands 3.24 min.
Under `CC(C)CCCC(C)N` (stereo not drawn) stands 9.28 min; under `CCCNCCN`, 7 min.
Then `COc1ccc(N=Nc2c(N)n[nH]c2N)cc1`, with 9.61 min; and `c1ccc(C2CN3CCSC3=N2)cc1` (stereo not drawn), with 8.73 min; and `C1=CCNC1`, with 2.99 min.
With `CCOC(=O)c1ccc(N(CC)CC)cc1`, the LC retention time came to 12.5 min.
Then `c1ccc(N2CCN(c3ccccc3)C2c2cccnc2)cc1`, with 13 min; and `Cn1c(N)nc2nc[nH]c2c1=O`, with 6.36 min; and `Cc1ccc(OCCOCn2c(C)cc(=O)[nH]c2=O)cc1`, with 11 min.
For the compound `CCN(CC)c1nc(-c2ccncc2)nc2ccccc12`, the LC retention time worked out at 10.2 min.
Under `NCC1CCCCC1` stands 8.08 min; under `Nc1ccc(C(=O)O)cc1N`, 5.93 min.
On to `OCC(CO)(CO)c1ccccn1`, for which the LC retention time is 4.36 min.
Then `COc1cccc(OCCN)c1`, with 8.13 min; and `Cc1ccc2c(c1N)C(=O)c1ccccc1C2=O`, with 14.9 min.
Then `COC(=O)C(c1ccccc1)C1CCCCN1` (stereo not drawn), with 9.49 min; and `CC(C)(N)Cc1ccccc1`, with 8.82 min.
Then `Cc1ccc2c(c1)C(=O)c1cnc(C)cc1-2`, with 10.3 min; and `NC(=O)NCCCC(N)C(=O)O` (stereo not drawn), with 1.71 min; and `CC1(C)CC(=O)NC(=O)C1`, with 7.12 min.
For `CC(C)NCC(O)COc1cccc2ccccc12` (stereo not drawn), the LC retention time was determined as 10.4 min.
Then `CC1C(=O)CC[N+](C)(C)C1C` (stereo not drawn), with 7.63 min; and `Cc1ccc(N2C(=O)CC(N(CCc3ccccc3)C(=S)Nc3cccc(C)c3)C2=O)cc1` (stereo not drawn), with 17.6 min; and `CC(C)CC(NC(=O)CN)C(=O)O` (stereo not drawn), with 7.75 min.
As to `CC1(C)SC2C(NC(=O)C(N)c3ccc(O)cc3)C(=O)N2C1C(=O)O` (stereo not drawn), the LC retention time is 7.52 min.
Then `CC1CCCCN1C(=O)c1ccccc1NC(=O)c1ccco1` (stereo not drawn), with 12.4 min.
Turning to `CN(C)Cc1c(N)cc2ccccc2c1-c1ccccc1`, the LC retention time worked out at 8.82 min.
Under `NCc1ccncc1` stands 6.44 min.
Under `CCc1c(C)nc2c(O)cccn2c1=O` stands 8.76 min.
